According to patent US9795602B2, “Polycyclic-carbamoylpyridone compounds and their pharmaceutical use” (Gilead Sciences, Inc., priority 2014, dated 2017):
Where two headings read alike, the source gives them in different places.

Experiments:
Format in all cases: cell-based
HIV-IIIb = assay: Antiviral assay in MT4 cells; conditions: Human immunodeficiency virus 1, IIIB, MT4, 120 h, MT4 cells, HIV-IIIb, 5 days; read-out: EC50
Description: 1 mL aliquots of 2×10^6 MT4 cells are pre-infected for 1 and 3 hours respectively at 37° C. with 25 μL (MT4) or of either cell growth medium (mock-infected) or a fresh 1:250 dilution of an HIV-IIIb concentrated ABI stock (0.004 m.o.i. for MT4 cells). Infected and uninfected cells are diluted in cell growth medium and 35 μL of 2000 (for MT4) cells is added to each well of the assay plates.
(§1) Assay plates were then incubated in a 37° C. incubator. After 5 days of incubation, 25 μL of 2× concentrated CellTiter-Glo™ Reagent (catalog # G7573, Promega Biosciences, Inc., Madison, Wis.) was added to each well of the assay plate. Cell lysis was carried out by incubating at room temperature for 2-3 minutes, and then chemiluminescence was read using the Envision reader (PerkinElmer).

[1] = Cytotoxicity (CC50) in MT4 cells, mock-infected; conditions: human
Description: as §1, with “Infected and uninfected cells are diluted in cell growth medium and 35 μL of 2000 (for MT4) cells is added to each well of the assay plates. Assay” for “Assay”

PXR (NR1I2) = PXR (NR1I2) (Homo sapiens (Human), UniProt O75469); assay: Human PXR activation assay (luciferase reporter, DPX2 cells); conditions: human
Chain of PXR (NR1I2) (O75469 whole entry): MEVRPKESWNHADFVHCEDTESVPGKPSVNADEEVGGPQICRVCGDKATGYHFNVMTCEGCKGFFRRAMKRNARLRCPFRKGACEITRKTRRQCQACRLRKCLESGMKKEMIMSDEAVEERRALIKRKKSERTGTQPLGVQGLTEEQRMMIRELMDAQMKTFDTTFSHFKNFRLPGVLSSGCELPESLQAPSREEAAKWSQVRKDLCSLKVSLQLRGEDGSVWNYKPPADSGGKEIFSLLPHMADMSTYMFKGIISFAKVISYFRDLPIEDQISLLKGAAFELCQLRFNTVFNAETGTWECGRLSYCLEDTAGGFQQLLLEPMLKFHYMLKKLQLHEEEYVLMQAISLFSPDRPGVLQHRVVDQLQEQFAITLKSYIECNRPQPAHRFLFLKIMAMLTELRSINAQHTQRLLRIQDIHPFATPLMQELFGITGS
Description: Luciferase Reporter Gene Assay.
A stably transformed tumor cell line (DPX2) was plated on 96-well microtiter plates. […]. The number of viable cells was determined and the reporter gene activity was assessed. […]

[2] = 15 uM, DPX2 cells, % Emax relative to rifampicin, adjusted for DMSO background, read-out: PXR % inh at 15 uM (adjusted)

| Structure (SMILES) | EC50 (HIV-IIIb) | CC50 at 5 days ([1]; mock-infected (uninfected)) | inhibition at 24 h, 15 µM (PXR (NR1I2); [2]) | inhibition at 24 h, 15 µM (PXR (NR1I2)) | CC50 at 5 days ([1]; mock-infected) |
| --- | --- | --- | --- | --- | --- |
| CC(C)N1C(=O)c2c(O)c(=O)c(C(=O)NCc3c(F)cc(F)cc3F)cn2[C@H]2CCOC[C@H]21 [Compound 38] | 2.83 nM | 16.6 µM | 67% |  |  |
| O=C(NCc1c(F)cc(F)cc1F)c1cn2c(c(O)c1=O)C(=O)N(CC(F)F)[C@@H]1COCC[C@@H]12 [Compound 34] | 2.23 nM | 32.3 µM | 3% |  |  |
| O=C(NCc1ccc(F)c(Cl)c1F)c1cn2c(c(O)c1=O)C(=O)N(CC(F)(F)F)[C@@H]1COCC[C@@H]12 [Compound 50] | 2.68 nM | 48.4 µM | 1% |  |  |
| CCN1C(=O)c2c(O)c(=O)c(C(=O)NCc3cc(F)c(F)cc3F)cn2[C@H]2CCOC[C@H]21 [Compound 17] | 4.8 nM | 23.9 µM | 7% |  |  |
| CCN1C(=O)c2c(O)c(=O)c(C(=O)NCc3ccc(F)c(F)c3)cn2[C@H]2CCOC[C@H]21 [Compound 20] | 9.6 nM | 34.1 µM | 1% |  |  |
| CCCN1C(=O)c2c(O)c(=O)c(C(=O)NCc3c(F)cc(F)cc3F)cn2[C@H]2CCOC[C@H]21 [Compound 37] | 4.27 nM | 33.9 µM | 35% |  |  |
| O=C(NCc1c(F)cc(F)cc1F)c1cn2c(c(O)c1=O)C(=O)N[C@@H]1CCCC[C@H]12 [Compound 62] | 7.3 nM | 24.2 µM |  | 0% |  |
| CN1C(=O)c2c(O)c(=O)c(C(=O)NCc3c(F)cc(F)cc3F)cn2[C@@H]2COC[C@H]21 [Compound 46] | 2.93 nM | 28.2 µM | 8% |  |  |
| CCN1C(=O)c2c(O)c(=O)c(C(=O)NCc3c(F)cc(F)cc3F)cn2[C@H]2CCC(=O)C[C@H]21 [Compound 40a] | 1.28 nM | 29 µM |  | 4% |  |
| O=C(NCc1c(F)cc(F)cc1F)c1cn2c(c(O)c1=O)C(=O)N[C@@H]1CCCC[C@@H]12 [Compound 60] | 1.9 nM | 13.8 µM | 2% |  |  |
| CCN1C(=O)c2c(O)c(=O)c(C(=O)NCc3ccc(F)c(Cl)c3F)cn2[C@@H]2CCOC[C@H]21 [Compound 13] | 10.7 nM | 7.32 µM | 5% |  |  |
| C[C@@H]1OCC[C@H]2[C@@H]1N(C)C(=O)c1c(O)c(=O)c(C(=O)NCc3c(F)cc(F)cc3F)cn12 [Compound 54, (4S,4aS,11aS)-7-hydroxy-4,5-dimethyl-6,8-dioxo-N-(2,4,6-trifluorobenzyl)-1,2,4,4a,5,6,8,11a-octahydropyrano[3,4-e]pyrido[1,2-a]pyrazine-9-carboxamide] | 2.92 nM |  | 8% |  | 23.9 µM |
| CCN1C(=O)c2c(O)c(=O)c(C(=O)NCc3cccc(Cl)c3F)cn2[C@H]2CCOC[C@H]21 [Compound 16] | 2.13 nM | 11.5 µM | 7% |  |  |
| O=C(NCc1c(F)cc(F)cc1F)c1cn2c(c(O)c1=O)C(=O)N(CC(F)(F)F)[C@@H]1CCCC[C@H]12 [Compound 7] | 14.9 nM | 19.8 µM | 36% |  |  |
| O=C(NCc1c(F)cc(F)cc1F)c1cn2c(c(O)c1=O)C(=O)N[C@H]1CCC[C@H]12 [Compound 28] | 4.4 nM | 10.8 µM | 4% |  |  |
| CCN1C(=O)c2c(O)c(=O)c(C(=O)NCc3ccc(F)c(C)c3F)cn2[C@H]2CCOC[C@H]21 [Compound 47] | 5.7 nM | 27.2 µM | 9% |  |  |

| Structure (SMILES) | EC50 (HIV-IIIb) | CC50 at 5 days ([1]; mock-infected (uninfected)) | inhibition at 24 h, 15 µM (PXR (NR1I2); [2]) | inhibition at 24 h, 15 µM (PXR (NR1I2)) | CC50 at 5 days ([1]; mock-infected) |
| --- | --- | --- | --- | --- | --- |
| CN1C(=O)c2c(O)c(=O)c(C(=O)NCc3c(F)cc(F)cc3F)cn2[C@H]2CCCC[C@H]21 [Compound 59] | 3.42 nM |  | 44% |  | 11.4 µM |
| O=C(NCc1c(F)cc(F)cc1F)c1cn2c(c(O)c1=O)C(=O)N[C@H]1CCCC[C@@H]12 [Compound 61] | 6.3 nM | 31.4 µM |  | 0% |  |
| CN1C(=O)c2c(O)c(=O)c(C(=O)NCc3c(F)cc(F)cc3F)cn2[C@H]2COC[C@H]21 [Compound 42] | 5.67 nM | 31.9 µM | 3% |  |  |
| CN1C(=O)c2c(O)c(=O)c(C(=O)NCc3c(F)cc(F)cc3F)cn2[C@H]2CCCC[C@@H]21 [Compound 2] | 3.9 nM | 11.2 µM |  | 46% |  |
| CCN1C(=O)c2c(O)c(=O)c(C(=O)NCc3ccc(F)c(Cl)c3F)cn2[C@H]2COCC[C@H]21 [Compound 57, (4aR,11aR)-N-(3-chloro-2,4-difluorobenzyl)-5-ethyl-7-hydroxy-6,8-dioxo-1,3,4,4a,5,6,8,11a-octahydropyrano[4,3-e]pyrido[1,2-a]pyrazine-9-carboxamide] | 2.29 nM |  | 3% |  | 6.45 µM |
| CCN1C(=O)c2c(O)c(=O)c(C(=O)NCc3c(F)cc(F)cc3F)cn2[C@@H]2CCCC[C@@H]21 [Compound 5] | 4.74 nM | 17 µM | 66% |  |  |
| CN1C(=O)c2c(O)c(=O)c(C(=O)NCc3ccc(F)c(Cl)c3F)cn2[C@H]2C[C@@H]3C[C@@H]3[C@H]21 [Compound 52, (6aR,6bS,7aS,8aS)-N-(3-chloro-2,4-difluorobenzyl)-4-hydroxy-6-methyl-3,5-dioxo-5,6,6a,6b,7,7a,8,8a-octahydro-3H-cyclopropa[4,5]cyclopenta[1,2-e]pyrido[1,2-a]pyrazine-2-carboxamide] | 4.95 nM |  | 24% |  | 2.83 µM |
| CN1C(=O)c2c(O)c(=O)c(C(=O)NCc3ccc(F)c(Cl)c3F)cn2[C@H]2CCOC[C@H]21 [Compound 49] | 3.32 nM | 12 µM | 1% |  |  |
| CCN1C(=O)c2c(O)c(=O)c(C(=O)NCc3c(F)cc(F)cc3F)cn2[C@@H]2CCO[C@@H]21 [Compound 26a] | 5.27 nM | 24.3 µM | 15% |  |  |
| CCN1C(=O)c2c(O)c(=O)c(C(=O)NCc3c(F)cc(F)cc3F)cn2[C@H]2CCO[C@H]21 [Compound 26b] | 4.93 nM | 30.9 µM | 24% |  |  |
| CN1C(=O)c2c(O)c(=O)c(C(=O)NCc3c(F)cc(F)cc3F)cn2[C@H]2CCOC[C@H]21 [Compound 48] | 4.3 nM | 32.3 µM | 1% |  |  |
| CCN1C(=O)c2c(O)c(=O)c(C(=O)NCc3c(F)cc(F)cc3F)cn2[C@H]2COCC[C@H]21 [Compound 56, (4aR,11aR)-5-ethyl-7-hydroxy-6,8-dioxo-N-(2,4,6-trifluorobenzyl)-1,3,4,4a,5,6,8,11a-octahydropyrano[4,3-e]pyrido[1,2-a]pyrazine-9-carboxamide] | 3.07 nM |  | 10% |  | 4.49 µM |
| CN1C(=O)c2c(O)c(=O)c(C(=O)NCc3c(F)cc(F)cc3F)cn2[C@@H]2CCO[C@@H]21 [Compound 23] | 3.77 nM | 18 µM | 8% |  |  |
| O=C(NCc1c(F)cc(F)cc1F)c1cn2c(c(O)c1=O)C(=O)N(CC(F)(F)F)[C@@H]1CCOC[C@H]12 [Compound 8] | 16.5 nM | 57.1 µM | 24% |  |  |
| O=C(NCc1c(F)cc(F)cc1F)c1cn2c(c(O)c1=O)C(=O)N(CC(F)(F)F)[C@@H]1COCC[C@H]12 [Compound 35] | 3.8 nM | 16.5 µM | 6% |  |  |
